PubChem BioAssay AID1963845 (Molecular Pharmacology Branch, DTP, NCI, 2024)

Test system: 429239-143-T-J1-PDC complex spheroid viability
Assay: Anticancer human tumor 429239-143-T-J1-PDC patient-derived small cell lung carcinoma cell line growth inhibition [POLQ]
Conditions: for IC50: curve of first compound; for viability, T/C: stronger effect = lower value
In short: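 Complex spheroid viability model combining PDC tumour cells with endothelial (HUVEC) and MSC stromal cells. Novobiocin, ART-558 or RP6685 were tested singly and in combination with standard and investigational anticancer drugs. Each was titrated in half-log steps from near clinical Cmax, or from 10 microM where Cmax was unknown.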

[1] = second compound 0.0316 µM, first compound 0.00316 µM
[2] = second compound 0.0316 µM, first compound 0.01 µM
[3] = second compound 0.0316 µM, first compound 0.0316 µM
[4] = second compound 0.0316 µM, first compound 0.1 µM
[5] = second compound 0.0316 µM, first compound 0.316 µM
[6] = second compound 0.0316 µM, first compound 1 µM
[7] = second compound 0.1 µM, first compound 0.00316 µM
[8] = second compound 0.1 µM, first compound 0.01 µM
[9] = second compound 0.1 µM, first compound 0.0316 µM
[10] = second compound 0.1 µM, first compound 0.1 µM
[11] = second compound 0.1 µM, first compound 0.316 µM
[12] = second compound 0.1 µM, first compound 1 µM
[13] = second compound 0.316 µM, first compound 0.00316 µM
[14] = second compound 0.316 µM, first compound 0.01 µM
[15] = second compound 0.316 µM, first compound 0.0316 µM
[16] = second compound 0.316 µM, first compound 0.1 µM
[17] = second compound 0.316 µM, first compound 0.316 µM
[18] = second compound 0.316 µM, first compound 1 µM
[19] = second compound 1 µM, first compound 0.00316 µM
[20] = second compound 1 µM, first compound 0.01 µM
[21] = second compound 1 µM, first compound 0.0316 µM
[22] = second compound 1 µM, first compound 0.1 µM
[23] = second compound 1 µM, first compound 0.316 µM
[24] = second compound 1 µM, first compound 1 µM
[25] = second compound 3.16 µM, first compound 0.00316 µM
[26] = second compound 3.16 µM, first compound 0.01 µM
[27] = second compound 3.16 µM, first compound 0.0316 µM
[28] = second compound 3.16 µM, first compound 0.1 µM
[29] = second compound 3.16 µM, first compound 0.316 µM
[30] = second compound 3.16 µM, first compound 1 µM
[31] = second compound 10 µM, first compound 0.00316 µM
[32] = second compound 10 µM, first compound 0.01 µM
[33] = second compound 10 µM, first compound 0.0316 µM
[34] = second compound 10 µM, first compound 0.1 µM
[35] = second compound 10 µM, first compound 0.316 µM
[36] = second compound 10 µM, first compound 1 µM
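Note: luminescence signal used as surrogate measure of viable cells; spheroids exposed to compounds for seven days before readout.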
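Throughout, for viability, T/C: 100% = DMSO vehicle control viability as luminescence relative to vehicle.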

C=CCn1c(=O)c2cnc(Nc3ccc(N4CCN(C)CC4)cc3)nc2n1-c1cccc(C(C)(C)O)n1 + Nc1ccc(C#CCN(C(=O)Cc2ncc(C(F)(F)F)cc2C(F)(F)F)c2ccc(F)cc2)nn1
IC50 (second compound 0.0316 µM): 584 nM | IC50 (second compound 0.1 µM): 624 nM | IC50 (second compound 0.316 µM): 599 nM | IC50 (second compound 1 µM): 578 nM | IC50 (second compound 3.16 µM): 576 nM | IC50 (second compound 10 µM): 548 nM | viability, T/C [1]: 95.7% | viability, T/C [2]: 97.4% | viability, T/C [3]: 106% | viability, T/C [4]: 101% | viability, T/C [5]: 88.1% | viability, T/C [6]: 16.3% | viability, T/C [7]: 99.1% | viability, T/C [8]: 103% | viability, T/C [9]: 96.6% | viability, T/C [10]: 103% | viability, T/C [11]: 95% | viability, T/C [12]: 18.7% | viability, T/C [13]: 106% | viability, T/C [14]: 110% | viability, T/C [15]: 108% | viability, T/C [16]: 101% | viability, T/C [17]: 94% | viability, T/C [18]: 15.2% | viability, T/C [19]: 111% | viability, T/C [20]: 109% | viability, T/C [21]: 97.8% | viability, T/C [22]: 105% | viability, T/C [23]: 89.3% | viability, T/C [24]: 14% | viability, T/C [25]: 109% | viability, T/C [26]: 101% | viability, T/C [27]: 100% | viability, T/C [28]: 103% | viability, T/C [29]: 90.3% | viability, T/C [30]: 12.9% | viability, T/C [31]: 106% | viability, T/C [32]: 99.7% | viability, T/C [33]: 122% | viability, T/C [34]: 101% | viability, T/C [35]: 84% | viability, T/C [36]: 13.3%

CCc1c2c(nc3ccc(O)cc13)-c1cc3c(c(=O)n1C2)COC(=O)[C@]3(O)CC + COC1C(OC(N)=O)C(O)C(Oc2ccc3c(O)c(NC(=O)c4ccc(O)c(CC=C(C)C)c4)c(=O)oc3c2C)OC1(C)C
IC50 (second compound 0.0316 µM): < 3.16 nM | IC50 (second compound 0.1 µM): < 3.16 nM | IC50 (second compound 0.316 µM): < 3.16 nM | IC50 (second compound 1 µM): < 3.16 nM | IC50 (second compound 3.16 µM): < 3.16 nM | IC50 (second compound 10 µM): < 3.16 nM | viability, T/C [1]: 19.1% | viability, T/C [2]: 17.6% | viability, T/C [3]: 17.5% | viability, T/C [4]: 20% | viability, T/C [5]: 17.5% | viability, T/C [6]: 8.92% | viability, T/C [7]: 17% | viability, T/C [8]: 17.4% | viability, T/C [9]: 17.8% | viability, T/C [10]: 20.6% | viability, T/C [11]: 14% | viability, T/C [12]: 5.7% | viability, T/C [13]: 17.4% | viability, T/C [14]: 18.3% | viability, T/C [15]: 17.3% | viability, T/C [16]: 14.5% | viability, T/C [17]: 15.6% | viability, T/C [18]: 5.23% | viability, T/C [19]: 21.4% | viability, T/C [20]: 18.1% | viability, T/C [21]: 18% | viability, T/C [22]: 19.1% | viability, T/C [23]: 12.5% | viability, T/C [24]: 6.46% | viability, T/C [25]: 20.1% | viability, T/C [26]: 14.8% | viability, T/C [27]: 18.4% | viability, T/C [28]: 18.5% | viability, T/C [29]: 15.3% | viability, T/C [30]: 5.6% | viability, T/C [31]: 18.1% | viability, T/C [32]: 18.9% | viability, T/C [33]: 18.2% | viability, T/C [34]: 15.8% | viability, T/C [35]: 14.8% | viability, T/C [36]: 5.55%

CC1COCCN1c1cc(-c2ccnn2C)c2ccnc(-c3ccn[nH]3)c2n1 (stereo unspecified) + Nc1ccc(C#CCN(C(=O)Cc2ncc(C(F)(F)F)cc2C(F)(F)F)c2ccc(F)cc2)nn1
IC50 (second compound 0.0316 µM): 545 nM | IC50 (second compound 0.1 µM): 469 nM | IC50 (second compound 0.316 µM): 466 nM | IC50 (second compound 1 µM): 373 nM | IC50 (second compound 3.16 µM): 343 nM | IC50 (second compound 10 µM): 280 nM | viability, T/C [3]: 95% | viability, T/C [4]: 77.8% | viability, T/C [5]: 68.3% | viability, T/C [6]: 33.4% | viability, T/C (second compound 0.0316 µM, first compound 3.16 µM): 4.99% | viability, T/C (second compound 0.0316 µM, first compound 10 µM): 3.79% | viability, T/C [9]: 91.9% | viability, T/C [10]: 80.6% | viability, T/C [11]: 62.9% | viability, T/C [12]: 27.8% | viability, T/C (second compound 0.1 µM, first compound 3.16 µM): 5.19% | viability, T/C (second compound 0.1 µM, first compound 10 µM): 4.25% | viability, T/C [15]: 91.5% | viability, T/C [16]: 78.6% | viability, T/C [17]: 64.7% | viability, T/C [18]: 24.5% | viability, T/C (second compound 0.316 µM, first compound 3.16 µM): 5.31% | viability, T/C (second compound 0.316 µM, first compound 10 µM): 3.76% | viability, T/C [21]: 86.8% | viability, T/C [22]: 72% | viability, T/C [23]: 56.1% | viability, T/C [24]: 26.2% | viability, T/C (second compound 1 µM, first compound 3.16 µM): 5.38% | viability, T/C (second compound 1 µM, first compound 10 µM): 4.35% | viability, T/C [27]: 87.9% | viability, T/C [28]: 72.5% | viability, T/C [29]: 53.1% | viability, T/C [30]: 26.6% | viability, T/C (second compound 3.16 µM, first compound 3.16 µM): 5.52% | viability, T/C (second compound 3.16 µM, first compound 10 µM): 3.58% | viability, T/C [33]: 89.4% | viability, T/C [34]: 71.2% | viability, T/C [35]: 47.4% | viability, T/C [36]: 25.8% | viability, T/C (second compound 10 µM, first compound 3.16 µM): 4.8% | viability, T/C (second compound 10 µM, first compound 10 µM): 3.43%
